# Where two headings read alike, the source gives them in different places.
# Legend:
# SARS-CoV-2 [1] = experiment: microbe, parasite or virus in culture; type: cell-based; conditions: for EC50: read-out: EC50 (half-maximal effective doses), antiviral; for EC90: read-out: EC90 (90% maximal effective doses), antiviral; for protein levels of nucleoprotein, Vero E6 cells: western blotting
# P4 G4 [2] = experiment: In vitro translation (IVT) assays; type: biochemical, SARS-CoV-2
# in vitro = conditions: African green monkey
# RNA with P4 G4 = experiment: Cell-based RNA replication assays with SARS-CoV-2 RdRp (nsp12, nsp7, nsp8) in HEK293T cells, qRT-PCR; conditions: compared with P4-Mut, dose-dependent
# From the text: Cell-based RNA replication assay system was applied[43]–[45]. The plasmids nsp12, nsp7 and nsp8 were used to express codon-optimized Flag-nsp12, Flag-nsp7 and Flag-nsp8, respectively, all of which contain a Flag tag at the C-terminus. To generate the SARS-CoV-2 transcripts with P4 G4 site for RNA replication assays, 5’ untranslated region (UTR)-P4 G4 -3’ UTR was first synthesized, then inserted into the pGEM-T esay vector. And the SARS-CoV-2 RNA with P4 G4 site was produced using T7 RNA polymerases from a standard in vitro transcription kit.
# HEK293T cells were transfected with the RNA with P4 G4 site, nsp12, nsp7, and nsp8 plasmids at the ratio of 1:10:30:30. At 12 h post transfection, cells were re-seeded in 24-well plates (4 × 10^4/well) and treated with PDP or TMPyP4. After 48 h incubation, cells were collected and measured for RNA levels by qRT-PCR assays.
# P4 G4 [3] = type: cell-based, SARS-CoV-2; conditions: 10 μM TMPyP4 or 2.5 μM PDP
# P4 G4 [4] = experiment: Protein expression from pCAG-Flag vector with P4-WT or P4-Mut in HeLa and HEK293T cells (western blotting); type: cell-based, SARS-CoV-2; conditions: concentration-dependent
# Vero E6 cells [5] = conditions: African green monkey
# P4 G4 (P4-WT RNA) = experiment: CD spectra and CD melting of P4-WT with G4-specific ligands; type: binding, SARS-CoV-2
# Procedure: For CD spectra and CD melting experiments, the DNA or RNA oligonucleotide samples pre-heated at 95 °C for 10 min were slowly cooled to room temperature, and then were incubated at 4 °C for 24 h. The samples were detected by JASCO J-810 spectropolarimeter equipped with a temperature-controlled water bath. In CD melting experiments, versus temperatures were collected at a heating rate of 1 °C/min.
# Vero E6 cells [6] = experiment: Cell viability, SRB assays; conditions: Vero E6 cells, SRB assays
# [7] = Cell viability, SRB assays; conditions: African green monkey
# SARS-CoV-2 [8] = experiment: In vivo antiviral studies in SARS-CoV-2-infected Syrian hamsters
# Procedure: The in vivo antiviral studies were carried out in an ABSL3 facility in Changchun
# Veterinary Research Institute, Chinese Academy of Agricultural Sciences. All animal
# studies were performed in strict accordance with the guidelines set by the Chinese
# Regulations of Laboratory Animals and Laboratory Animal-Requirements of
# Environment and Housing Facilities. All animals used in this study were chosen
# antiviral in SARS-CoV-2 infection. First, we use a model of Syrian hamsters; and
# second, we used a model of human angiotensin-converting enzyme 2 (hACE2)-KI/IOZ
# 10) or saline (n = 5) 1 h prior to infection. Then the hamsters were anesthetized and
# infected intranasally with 105 TCID50 of SARS-CoV-2. For the low challenge dose
# For the high challenge dose
# The conditions of hamsters
# including body weight were monitored daily until sacrifice. 3 days post infection (dpi),
# the hamsters were humanely euthanized. The nasal wash, nasal tissues and lung tissues
# were harvested for viral titration and pathological examination. Briefly, the nasal
# tissues and lung tissues were weighed, and 1 gram of each tissue was placed into 1
# mL of PBS containing 100 U/mL penicillin, making 10% weight/volume
# homogenates. The tissue samples were homogenized by Tissue Lyser (QIAGEN,
# Germany) and centrifuged at 8,000 rpm. The supernatants were then collected and
# inoculated into Vero E6 cells, and viral RNA copy numbers and viral titration were
# determined by qRT-PCR and TCID50, respectively. Meanwhile, the lungs were fixed
# in formalin, and the fixed tissues were embedded in paraffin and stained with H&E
# for pathological examination.
# therapeutic treatment in vivo, the hamsters were pre-infected with the virus (105
# intraperitoneal, i.p., 15 mg/kg)) 1 h prior to infection. Then the hamsters were
# anesthetized and infected intranasally with 105 TCID50 of SARS-CoV-2. The conditions
# of hamsters including body weight were monitored daily until sacrifice. 3 dpi, the
# hamsters were humanely euthanized. The nasal wash, nasal tissues and lung tissues
# were harvested for viral titration and pathological examination.
# Lung histological analysis
# Lung histological analysis was examined by an experienced pathologist. H&E stained
# sections of lung from hamsters and mice were examined by implementing a semi
# quantitative, 5 point grading scheme (0-within normal limits, 1-mild, 2-moderate,
# SARS-CoV-2 [9] = type: cell-based, SARS-CoV-2 (BetaCoV/Beijing/IME-BJ05-2020); conditions: for protein levels of nucleoprotein, Calu-3 cells: western blotting
# P6 G4 = type: cell-based, SARS-CoV-2; conditions: 10 μM, HEK293T cells
# P2 G4 = type: cell-based, SARS-CoV-2; conditions: 10 μM, HEK293T cells
# P13 G4 = experiment: RNA replication assay, RNA with P13 G4 in HEK293T cells; type: cell-based, SARS-CoV-2
# [10] = hamster plasma, 30 mg/kg i.n., single dose
# P14 G4 = experiment: RNA replication assay, RNA with P14 G4 in HEK293T cells; type: cell-based, SARS-CoV-2
# SARS-CoV-2 [11] = conditions: mouse, in vivo
# [12] = 30 mg/kg i.n. once daily for 7 consecutive days
# [13] = cited from earlier work
# P1 = type: cell-based, SARS-CoV-2; conditions: 10 μM, HEK293T cells
# P3 G4 = type: cell-based, SARS-CoV-2; conditions: 10 μM, HEK293T cells
# [14] = Severe acute respiratory syndrome coronavirus 2, Vero C1008, Vero E6 cells, 10^3 TCID50 virus/mL, 72 h post infection, viral RNA copies/mL
# [15] = dose-dependent, 72 h post infection
# [16] = hamster, 15 mg/kg i.p., day 3 after infection
compound,measurement,setting,value
NCCOc1cc(C(=O)Nc2cc(OCCN3CCCC3)c3ccccc3n2)nc(C(=O)Nc2cc(OCCN3CCCC3)c3ccccc3n2)c1 [PDP],SI (selectivity index),SARS-CoV-2 [1],7.78
same,EC50,SARS-CoV-2 [1]; [14],0.63 µM
same,EC90,SARS-CoV-2 [1]; [14],> 2 µM
same,viral RNA copies and viral titers in Vero E6 cells,SARS-CoV-2 [1]; [15],significantly reduced viral RNA copies and viral titers
same,IVT of P4-WT,P4 G4 [2]; P4-WT,inhibited the IVT of P4-WT
same,CC50,in vitro,4.9 µM
same,replication of P4-WT RNA,RNA with P4 G4,significantly inhibit the replication of P4-WT
same,P4-WT EGFP fluorescence intensity,P4 G4 [3],inhibited the P4-WT EGFP fluorescence intensity
same,P4-Mut EGFP fluorescence intensity,P4 G4 [3],not P4-Mut
same,protein levels of P4-WT,P4 G4 [4],decreased the protein levels of P4-WT
same,CC10 (10% cytotoxic concentration),Vero E6 cells [5],2.84 µM
same,effect on the thermal stability of P4 G4,P4 G4 (P4-WT RNA),significantly enhanced the thermal stability
CCC(CC)COC(=O)[C@H](C)N[P@](=O)(OC[C@H]1O[C@@](C#N)(c2ccc3c(N)ncnn23)[C@H](O)[C@@H]1O)Oc1ccccc1 [remdesivir],maximal viral titers reduction in the culture supernatant of Vero E6 cell,"SARS-CoV-2 [1]; 72 h post infection, TCID50",~ 3 log10
same,maximal viral RNA copies reduction in the Vero E6 cell culture supernatant,"SARS-CoV-2 [1]; 72 h post infection, qRT-PCR",~ 4 log10
same,maximal viral RNA copies reduction in the Vero E6 cell lysate,"SARS-CoV-2 [1]; 72 h post infection, qRT-PCR",3 log10
same,EC50,SARS-CoV-2 [1]; [14],1.33 µM
same,EC90,SARS-CoV-2 [1]; [14],2.42 µM
same,SI (selectivity index),"SARS-CoV-2 [1]; Vero E6 cells, CC50/EC50",> 75.19
same,viral RNA copies and viral titers in Vero E6 cells,SARS-CoV-2 [1]; [15],significantly reduced viral RNA copies and viral titers
same,CC10 (10% cytotoxic concentration),Vero E6 cells [6],1.04 µM
same,CC50,[7],> 100 µM
same,"maximal viral RNA copies reduction in the nasal wash, nasal turbinate and lung tissues",SARS-CoV-2 [8]; [16],1 log10
same,"viral titers reduction in the nasal wash, nasal turbinate and lung tissues",SARS-CoV-2 [8]; [16],~ 1.5 log10
C[n+]1ccccc1-c1c2nc(c(-c3cccc[n+]3C)c3ccc([nH]3)c(-c3cccc[n+]3C)c3ccc([nH]3)c(-c3cccc[n+]3C)c3nc1C=C3)C=C2 [TMPyP2],"protein levels of nucleoprotein, Vero E6 cells",SARS-CoV-2 [1]; 100 μM,not TMPyP2
same,replication of P4-WT RNA,RNA with P4 G4,no effects
same,P4-WT EGFP fluorescence intensity,P4 G4 [3],no effects
same,protein levels of P4-WT,P4 G4 [4],no effects
same,"protein levels of nucleoprotein, Calu-3 cells",SARS-CoV-2 [9]; 100 μM,not TMPyP2
same,effect on the thermal stability of P4 G4,P4 G4 (P4-WT RNA),no effects on the thermal stability
"C[n+]1ccc(-c2c3nc(c(-c4cc[n+](C)cc4)c4ccc([nH]4)c(-c4cc[n+](C)cc4)c4nc(c(-c5cc[n+](C)cc5)c5ccc2[nH]5)C=C4)C=C3)cc1 [TMPyP4, 5,10,15,20-tetrakis-(N-methyl-4-pyridyl)porphine]","EGFP expression, P6-EGFP",P6 G4,inhibited EGFP expression
same,"EGFP expression, P2-EGFP",P2 G4,inhibited EGFP expression
same,"RNA replication, RNA with P13 G4",P13 G4,suppressed RNA replication
same,SI (selectivity index),SARS-CoV-2 [1],> 112.74
same,antiviral activity of TMPyP4 after pre-transfection of ASOs targeting viral G4s,SARS-CoV-2 [1],significantly inhibited by ASO targeting viral G4s
same,maximal viral RNA copies reduction in the Vero E6 cell culture supernatant,SARS-CoV-2 [1],~ 7 log10
same,maximal viral RNA copies reduction in the Vero E6 cell lysate,SARS-CoV-2 [1],~ 6 log10
same,maximal viral titers reduction in the culture supernatant of Vero E6 cell,SARS-CoV-2 [1],~ 6 log10
same,viral RNA copies and viral titers in Vero E6 cells,SARS-CoV-2 [1],significantly reduced viral RNA copies and viral titers
same,viral loads in Vero E6 cells pre-infected with SARS-CoV-2,SARS-CoV-2 [1],significantly decreased the viral loads
same,"protein levels of nucleoprotein, Vero E6 cells",SARS-CoV-2 [1]; 100 μM,significantly suppress the protein levels of nucleoprotein
same,time-of-addition: stage of action,"SARS-CoV-2 [1]; Vero E6 cells, 100 μM",functioned at a stage post SARS-CoV-2 entry
same,antiviral synergy with remdesivir in vitro,SARS-CoV-2 [1]; combination of TMPyP4 and remdesivir,did not exhibit antiviral synergy
same,EC50,SARS-CoV-2 [1],8.87 µM
same,EC90,SARS-CoV-2 [1],13.2 µM
same,Cmax,[10],17880 ng/mL
same,area under the curve (AUC),[10],167.32 h⋅μg/mL
same,half-life (T1/2),[10],6.36 h
same,"RNA replication, RNA with P14 G4",P14 G4,suppressed RNA replication
same,viral loads in the nasal turbinate and lung tissues,SARS-CoV-2 [11],significantly decreased the viral loads in the nasal turbinate and lung tissues
same,IVT of P4-WT,P4 G4 [2],inhibited the IVT of P4-WT
same,toxicity in hamsters,[12],no noticeable toxicity in the hamsters
same,toxicity in the lung tissues of hamsters,[12],no noticeable toxicity in the lung tissues of hamsters
same,replication of P4-WT RNA,RNA with P4 G4,significantly inhibit the replication of P4-WT
same,toxicity in the animals for short-term treatment,[13],no noticeable toxicity
same,P4-WT EGFP fluorescence intensity,P4 G4 [3],inhibited the P4-WT EGFP fluorescence intensity
same,P4-Mut EGFP fluorescence intensity,P4 G4 [3],not P4-Mut
same,protein levels of P4-WT,P4 G4 [4],decreased the protein levels of P4-WT
same,CC10 (10% cytotoxic concentration),Vero E6 cells [6],727.7 µM
same,CC50,Vero E6 cells [6]; read-out: CC50 (half-cytotoxic concentration),> 1000 µM
same,"protein levels of nucleoprotein, Calu-3 cells",SARS-CoV-2 [9]; 100 μM,significantly suppress the protein levels of nucleoprotein
same,mRNA expression of pro-inflammatory cytokines and chemokines,"SARS-CoV-2 [9]; Calu-3 cells, 100 μM, qRT-PCR",decrease the mRNA expression of pro-inflammatory cytokines and chemokines
same,virus infection in Calu-3 cells,SARS-CoV-2 [9]; human lung epithelial Calu-3 cells,inhibited virus infection efficiently
same,"EGFP expression, P1-EGFP",P1,not P1
same,"EGFP expression, P3-EGFP",P3 G4,inhibited EGFP expression
same,antiviral synergy with remdesivir in hamsters,SARS-CoV-2 [8]; TMPyP4 15 mg/kg i.n. combined with remdesivir 15 mg/kg i.p.,did not exhibit antiviral synergy with remdesivir in hamsters
same,"decrease of mean viral loads (viral RNA copies/mL and TCID50/mL) in nasal wash, nasal turbinate and lung tissues","SARS-CoV-2 [8]; hamster, in vivo",2–4 log10
same,lung damage (histopathology),"SARS-CoV-2 [8]; hamster, in vivo",significantly ameliorate lung damage
same,mRNA expression of inflammatory-associated genes in the lungs,"SARS-CoV-2 [8]; hamster, in vivo",reduced mRNA expression of inflammatory-associated genes in the lungs
same,"maximal viral RNA copies reduction in the nasal wash, nasal turbinate and lung tissues","SARS-CoV-2 [8]; hamster, in vivo, 15 mg/kg",~ 3 log10
same,"viral titers reduction in the nasal wash, nasal turbinate and lung tissues","SARS-CoV-2 [8]; hamster, in vivo, 15 mg/kg",~ 3.5 log10
same,"lung damage, therapeutic treatment","SARS-CoV-2 [8]; hamster, in vivo, 30 mg/kg",could ameliorate lung damage
same,"viral loads in nasal wash, nasal turbinate and lung tissues, therapeutic treatment","SARS-CoV-2 [8]; hamster, in vivo, 30 mg/kg",significantly decreased the viral loads
same,effect on the thermal stability of P4 G4,P4 G4 (P4-WT RNA),significantly enhanced the thermal stability
